{"source": "patent US20090280110A1", "about": "“Cell Model for Alzheimer's Disease Pathology” (UNIVERSITY OF VIRGINIA PATENT FOUNDATION, priority 2006, published 2009)", "key": {"CV-1 cell microtubules": {"test_system": "CV-1 cell microtubules", "test": "Time lapse fluorescence microscopy of microtubules in transfected CV-1 cells treated with Aβ", "format": "cell-based, African green monkey", "method": "(§1) Cell Culture: CV-1 (African green monkey kidney) cells were cultured in DMEM (Dulbecco's modified Eagle's Medium; GIBCO) supplemented with 10% Cosmic Calf Serum (Hyclone) and 50 μg/ml gentamycin. Cells were transiently transfected using Fugene (Roche) with cDNAs for the longest human isoform of tau, or the projection domain (amino acids 1-248) of tau linked at their C-terminals to eCFP or eYFP (Clontech); with YFP-α-tubulin (Clontech); or with GFP-MAP2c or GFP-MAP2c/tau chimeras (Roger et al., 2004), which were generous gifts of Dr. Shelley Halpain. Primary cortical neurons were purchased from Genlantis and cultured according to their guidelines. Primary hippocampal neurons (Wisco et al., 2003) were grown for at least 8 days prior to Aβ treatment. The tau siRNA (Darmacon SMARTpool) and control scrambled siRNA (Darmacon non-specific duplex II) were transfected into primary hippocampal neurons using the rat neuron Nucleofection system (Amaxa) and program G-13 (Qiang et al., 2006). Cells were cultured for 4 days after Nucleofection, and then were exposed to Aβ.\nAβ treatment: Previously described methods were used to synthesize (Burdick et al., 1992) and resuspend (Kayed et al., 2003) Aβ42 and Aβ40. The Aβ was added to cells cultured in serum-free DMEM to final concentrations from 0.1-5 μM. Pre-fibrillar Aβ was used in the first and second days following resuspension, while fibrillar Aβ was used following at least 7 days of stirring.\nMicroscopy: Confocal live cell imaging and immunofluorescence microscopy were performed on a Zeiss Axiovert 100 using Openlab 4.0 (Improvision) software, as previously described (Mateer et al., 2002). For electron microscopy, primary cortical and hippocampal neurons were grown on glass coverslips, treated with Aβ42, and fixed in 2.5% glutaraldehyde+0.5% tannic acid in 0.1 M cacodylate buffer pH 7.4. Cells on coverslips were dehydrated and capsule embedded in EPON, and the glass coverslip was removed from the EPON by alternating liquid nitrogen and warm water submersion of the capsule. Sectioned samples were viewed on a JEOL JEM 1010 electron microscope at 80 kV and images captured using a SA1-12c 16 megapixel cooled CCD (Scientific Instruments and Applications, Inc)."}, "tau": {"test_system": "tau", "test": "Western blotting with phosphorylation-sensitive anti-tau antibodies (PHF-1, AT180, tau-1)", "format": "cell-based", "conditions": "primary rat hippocampal neurons, 1 μM, 2 hours", "excerpt": "Antibodies: Tau-5, Tau-1, and R1 tau were generous gifts of Dr. Lester Binder, and PHF-1 was kindly provided by Dr. Peter Davies. AT180 (Pierce Endogen), DM1α (Sigma Chemical), Actin C4 (Chemicon), fluorescently tagged goat anti-mouse IgG and goat anti-rabbit (Southern Biotech), and HRP-labeled goat anti-mouse IgG (KPL) were acquired from the indicated commercial sources."}, "[1]": {"test_system": "microtubules in primary hippocampal neurons", "test": "Triton X-100 extraction partitioning soluble and polymerized tubulin, immunoblotting", "format": "cell-based, rat", "conditions": "2 hours", "method": "Microtubule Extraction/Blotting: Primary hippocampal neurons were treated with 1-3 μM pre-fibrillar or fibrillar Aβ42. Cells were washed with PBS, and extracted with Triton X-100 in a microtubule stabilizing buffer (Black et al., 1996). Briefly, cells were incubated with PHEM buffer (60 mM PIPES pH 6.9, 25 mM HEPES, 10 mM EGTA, 2 mM MgCl2) with 10 μM taxol, and 0.2% Triton X-100 for 5 minutes. The buffer was collected and centrifuged for 5 minutes at maximum speed in an Eppendorf model 5415 table top centrifuge, and the supernatant removed and added to sample buffer. An equivalent volume of PHEM buffer and sample buffer was added to the dish, and this sample was added to the pellet from the spin. Equal volumes of supernatants and pellets, which respectively contained soluble and polymerized tubulin (Black et al., 1996), were then analyzed by immunoblotting with DM1α monoclonal anti-α-tubulin (Sigma) and monoclonal tau-5. DM1α (Blose et al., 1984) and tau-5 (Loomis et al., 1990) recognize all isoforms or α-tubulin and tau, respectively, independently of post-translational modifications. Quantitation of scanned immunoreactive α-tubulin bands was performed using the public domain image processing software, Image J at the NIH website."}, "[2]": {"test_system": "primary rat cortical neurons", "test": "Immunofluorescence and electron microscopy of neurons treated with Aβ42", "format": "cell-based", "conditions": "1 μM", "method": "as §1\nMicroscopy: Confocal live cell imaging and immunofluorescence microscopy were performed on a Zeiss Axiovert 100 using Openlab 4.0 (Improvision) software, as previously described (Mateer et al., 2002). […]"}}, "note": "Entries after “also recorded” stand apart in the source; their conditions may differ.", "data": [{"substance": "pre-fibrillar Aβ42: synthesized Aβ42 peptide used in the first and second days following resuspension; monomers to oligomers", "values": [{"measurement": "time after addition until tau dissociated from microtubules", "setting": "CV-1 cell microtubules; CV-1 cells co-expressing tau-CFP and YFP-tubulin, 0.1-3 μM", "value": "1 to 2", "unit": "h"}, {"measurement": "concentration added to culture media at which tau dissociated from microtubules, which completely disassembled soon thereafter", "setting": "CV-1 cell microtubules; CV-1 cells co-expressing tau-CFP and YFP-tubulin, within 1-2 hours", "value": "0.1 to 3", "unit": "µM"}, {"measurement": "microtubule integrity in cells without tau", "setting": "CV-1 cell microtubules; CV-1 cells expressing YFP-tubulin but not tau-CFP, as much as 3 μM, more than two hours", "value": "remained intact"}, {"measurement": "effect on tau and microtubules in tau-expressing cells", "setting": "CV-1 cell microtubules; CV-1 cells with tau-CFP and YFP-tubulin, 1 μM, 0-120 minutes (FIG. 1a)", "value": "caused tau to dissociate from microtubules, and the microtubules to disassemble soon thereafter"}, {"measurement": "microtubules in cells expressing the N-terminal arm (projection domain) of tau coupled to CFP", "setting": "CV-1 cell microtubules; CV-1 cells, 1 μM", "value": "depolymerized"}, {"measurement": "microtubules in cells expressing GFP-tau chimera", "setting": "CV-1 cell microtubules; CV-1 cells, 1 μM, less than an hour", "value": "depolymerized"}, {"measurement": "microtubules in cells expressing GFP-MAP2c chimera", "setting": "CV-1 cell microtubules; CV-1 cells, 1 μM, more than 2 hours", "value": "remained intact"}, {"measurement": "microtubule integrity in cells expressing GFP-MAP2c", "setting": "CV-1 cell microtubules; CV-1 cells, 1 μM, over 2 hours", "value": "did not cause any apparent loss of microtubule integrity; also recorded: remained intact"}, {"measurement": "AD-like tau phosphorylation", "setting": "tau", "value": "did not cause increased AD-like tau phosphorylation"}, {"measurement": "change in tubulin levels in response to Aβ42 in tau siRNA-treated cells", "setting": "[1]; primary neurons with tau siRNA, 2 μM, compared to tau expressing cells", "value": "no change"}, {"measurement": "neurite morphology by immunofluorescence", "setting": "[2]; 30 minutes", "value": "swollen varicosities"}, {"measurement": "neurite microtubules by electron microscopy", "setting": "[2]; 2 hours", "value": "fewer, less organized microtubules; also recorded: numerous varicosities that were filled with membrane-bound organelles and lacked microtubules"}]}, {"substance": "fibrillar Aβ42: synthesized Aβ42 peptide used following at least 7 days of stirring", "values": [{"measurement": "microtubule integrity in tau-expressing cells", "setting": "CV-1 cell microtubules; CV-1 cells expressing tau-CFP, as much as 5 μM, more than two hours", "value": "unaffected"}, {"measurement": "microtubules in tau-expressing cells", "setting": "CV-1 cell microtubules; tau-expressing CV-1 cells, 3 μM, 0-140 minutes (FIG. 1c)", "value": "unaffected"}, {"measurement": "tubulin polymerized", "setting": "[1]; primary hippocampal neurons, 3 μM, about 90% in cells not exposed", "value": 65, "unit": "%"}]}]}
